Experimental data taken from paper PMC9923724, “Half sandwich-type osmium, ruthenium, iridium and rhodium complexes with bidentate glycosyl heterocyclic ligands induce cytostasis in platinum-resistant ovarian cancer cells and bacteriostasis in Gram-positive multiresistant bacteria” (Frontiers in Chemistry, 2023).

What was measured:
[1] = system: vancomycin-resistant Enterococcus (VRE) clinical isolates; experiment: Broth microdilution MIC, clinical VRE isolates; assay type: cell-based, E. faecium; settings: for MIC against clinical VRE isolates (as a group): 3 clinical VRE isolates; for MIC, VRE 25 051: clinical isolate 25 051, nephrostoma; for MIC, VRE 25 051 / MIC, VRE 25 498 / MIC, VRE 27 085: 2018; for MIC, VRE 25 498: clinical isolate 25 498, rectal swab; for MIC, VRE 27 085: clinical isolate 27 085, wound
Procedure: The MIC values of the complexes were determined against the reference strains of S. aureus (ATCC29213) and E. faecalis. (ATCC29212) and against clinical VRE and MRSA isolates by microdilution assays (repeated at least twice in duplicates) as described in Materials and Methods. The numbers indicate how many isolates were susceptible to the compound out of those tested; i.e., 1/6 stands for 1 isolate was susceptible out of 6 tested. […] Cells were harvested and lysed. Cellular proteins was separated on a 10% SDS-PAGE gel and were blotted. Blots were probed with 4HNE antibody (top blot), the lower blot was stained with amido black. Arrows point at band of interest. Experiments were repeated three times and a representative blot is shown. On the blots brightness and contrast were adjusted. […] Each was matched to a substance and strain by its position over the x-axis categories. / Ir-7: ND and 0/3 (left plot) and ND and 0/6 (right plot) were matched to E. faecalis/VRE and S. aureus/MRSA by position only.
We used a set of clinical isloates of S. aureus and E. faecium that were collected at the Medical Center of the University of Debrecen (Hungary) between 01. 01. 2018.—31. 12. 2020. The clinical isolates were identified using a Microflex MALDI-TOF mass spectrometer (Bruker, Billerica, MA, United States). Antibiotic susceptibility of the isolates was tested following the European Committee on Antimicrobial Susceptibility Testing ([EUCAST, 2021]) guidelines valid at the time of collection.
Microdilution experiments were performed according to the standards of EUCAST ([EUCAST, 2021]). […] The inoculated plates were incubated for 24 h at 37°C then were assessed visually. […] All experiments were performed at least twice in duplicates.

A2780 cells = experiment: Annexin V - propidium iodide double staining, flow cytometry; assay type: cell-based; settings: 2 h, complexes at their IC50 (Ru-7 0.846 μM, Os-7 0.578 µM, Ir-7 0.891 µM)
Source text: We verified the toxic effects of the active Ru, Os and Ir complexes by Annexin V-FITC propidium iodide (PI) double staining. The complexes were applied in concentrations corresponding to their respective IC50 values and we have not detected increases in the apoptotic (Annexin V positive population) or the necrotic (PI positive and Annexin V—PI double positive populations) as opposed to the hydrogen peroxide-treated cells used as positive control (Figure 6).
Cells were then stained with Annexin V and propidium iodide (PI) and cells were subjected to flow cytometry as described in Materials and Methods. The percent of cells in the quadrants are plotted. Data is represented as average ± SD, from three biological replicates, individual assays were performed in duplicates. Normal distribution was achieved by Box-Cox normalization of the data. Statistical significance was determined using a two-way ANOVA test, all measurement points were compared with each other. * indicate statistically significant differences between vehicle-treated (control) and treated cells (complexes or 300 µM H2O2) corresponding to the same quadrant (e.g., vehicle-treated double negative cells vs. H2O2-treated double negative cells) at p <0.05.
The proportions of dead cells was assessed using the Annexin V—propidium iodide assay and was measured using flow cytometry using BD FacsCalibur (BD Biosciences, Franklin Lakes, NJ, United States) instrument and the FITC Annexin V/Dead Cell Apoptosis kit (Life Technologies, Eugene, OR, United States) according to the manufacturer’s instructions similar to ([Bai et al., 2001]). Quadrants were set based on the FITC and PI values observed for the vehicle-treated cells. Ten thousand cells were measured and the percent in the quadrants was used for the subsequent calculation.

[2] = system: cisplatin resistant A2780 cells; experiment: SRB assay (48 h) on cisplatin-resistant A2780 cells; assay type: cell-based; settings: for IC50 / cisplatin resistant A2780 SRB Max. (maximal inhibition): cisplatin resistant A2780 cells, SRB, 48 h
Procedure: 6 × 10^3 cisplatin-resistant A2780 cells were plated to 96 well plates. Cells were treated with the compounds in the concentrations indicated for either 4 h for an MTT assay or for 48 h for an SRB assay. Data is represented as average ± SD, from three biological replicates; individual assays were performed in duplicates. Values were normalized for vehicle treated cells, absorbance for vehicle treated cells equals to 1. Each compound was assessed individually. Normality was assessed using the Shapiro-Wilk test. […] Statistical significance was assessed using One-way ANOVA test comparing all points to the smallest concentration. For better visibility the p values are presented in an excel sheet at https://figshare.com/s/2c942a812caea8869a67. Non-linear regression was performed on the results of the SRB assay datasets.
Cisplatin resistant cells underwent selection (1 µM cisplatin) once a week for 3 days before plating for any assay.
(§1) The assay was performed similar to ([Kovács et al., 2019]). Cells were seeded in 96 well plates the day before the assay. Cells were treated with the compounds for 48 h. Cells were fixed with 10% trichloroacetic acid (TCA). Fixed cells were washed in distilled water 3 times followed by staining with SRB (0.4 m/V% dissolved in 1% acetic acid) for 10 min. Stained cells were washed in 1% acetic acid 5 times; acetic acid was removed and cells were left to dry. Protein-bound SRB was released by adding 100 µl 10 mM Tris base. Plates were measured in a plate photometer (Thermo Scientific Multiscan GO spectrophotometer, Waltham, MA, United States) at 540 nm. On each plate wells were designed to contain vehicle-treated cells. In calculations the readings for these wells was considered as 1 and all readings were expressed relative to these values.
Statistical analysis was performed using 8.0.1 version of Graphpad Prism. Values were tested for normal distribution using the D’Agostino and Pearson normality test. When necessary, values were log normalized or were normalized using the Box-Cox normalization method ([Box and Cox, 1964]) as indicated in the figure captions.

[3] = system: Capan2 pancreatic adenocarcinoma cells; experiment: SRB assay (48 h) on Capan2 cells; assay type: cell-based
Procedure: 3 × 10^3 Capan2 cells, 2 × 10^3 Saos cells and 8 × 10^3 L428 were plated to 96 well plates. Cells were treated with the compounds in the concentrations for 48 h. Then for Capan2 and Saos SRB assay was performed, L428 cells were counted using a Burker chamber. Data is represented as average ± SD, from three biological replicates; individual assays were performed in duplicates. Values were normalized for vehicle treated cells, absorbance for vehicle treated cells equals to 1. Normality was checked using the Shapiro-Wilk test. The Saos Os-7 dataset was normalized using the Box-Cox method, other datasets had normal distribution. Each complex was individually assessed for statistical significance using One-way ANOVA test followed by Dunnett’s post hoc test; all values were compared to the values of the lowest concentration. For better visibility the p values are presented in an excel sheet at https://figshare.com/s/2c942a812caea8869a67. Non-linear regression was performed on the Capan2 and Saos datasets.
Capan2 cells were maintained in MEM, 10% fetal bovine serum, 1% Penicillin/Streptomycin, 2 mM Glutamine.
as §1
Statistical analysis was performed using 8.0.1 version of Graphpad Prism. Values were tested for normal distribution using the D’Agostino and Pearson normality test. When necessary, values were log normalized or were normalized using the Box-Cox normalization method ([Box and Cox, 1964]) as indicated in the figure captions. Non-linear regression was performed using the built-in “[Inhibitor] vs. response—Variable slope (four parameters), least square fit” utility of Graphpad that yielded IC50 and Hill slope values.

Cc1c(C)c(C)[c-](C)c1C.F[P-](F)(F)(F)(F)F.O=C(OCC1OC(n2cc(-c3ccc4ccccc4n3)nn2)C(OC(=O)c2ccccc2)C(OC(=O)c2ccccc2)C1OC(=O)c1ccccc1)c1ccccc1.[Cl][Ir+2] (mixture of isomers) [Ir-7]
MIC against clinical VRE isolates (as a group) [1]: no activity
MIC, VRE 25 051 [1]: 40< µM
MIC, VRE 25 498 [1]: 40< µM
MIC, VRE 27 085 [1]: 40< µM
induction of cell death (apoptotic / necrotic populations) (A2780 cells): do not induce cell death
IC50 [2]: 1540 nM
cisplatin resistant A2780 SRB Max. (maximal inhibition) [2]: >90%
Capan2 SRB Max. (maximal inhibition) [3]: 48.83%
IC50 [3]: 1930 nM

Cc1ccc(C(C)C)cc1.F[P-](F)(F)(F)(F)F.O=C(OCC1OC(n2cc(-c3ccc4ccccc4n3)nn2)C(OC(=O)c2ccccc2)C(OC(=O)c2ccccc2)C1OC(=O)c1ccccc1)c1ccccc1.[Cl][Os+] (mixture of isomers) [Os-7]
MIC against clinical VRE isolates (as a group) [1]: 10 µM
MIC, VRE 25 051 [1]: 10 µM
MIC, VRE 25 498 [1]: 10 µM
MIC, VRE 27 085 [1]: 10 µM
induction of cell death (apoptotic / necrotic populations) (A2780 cells): do not induce cell death
fold change of IC50, cisplatin resistant vs cisplatin sensitive A2780 ([2]; SRB assays, resistant / sensitive A2780): technically unchanged
IC50 [2]: 476 nM
cisplatin resistant A2780 SRB Max. (maximal inhibition) [2]: >90%
Capan2 SRB Max. (maximal inhibition) [3]: 59.11%
IC50 [3]: 1350 nM

Cc1ccc(C(C)C)cc1.F[P-](F)(F)(F)(F)F.O=C(OCC1OC(n2cc(-c3ccc4ccccc4n3)nn2)C(OC(=O)c2ccccc2)C(OC(=O)c2ccccc2)C1OC(=O)c1ccccc1)c1ccccc1.[Cl][Ru+] (mixture of isomers) [Ru-7]
MIC against clinical VRE isolates (as a group) [1]: 5 µM
MIC, VRE 25 051 [1]: 5 µM
MIC, VRE 25 498 [1]: 5 µM
MIC, VRE 27 085 [1]: 5 µM
induction of cell death (apoptotic / necrotic populations) (A2780 cells): do not induce cell death
IC50 [2]: 1180 nM
cisplatin resistant A2780 SRB Max. (maximal inhibition) [2]: >90%
Capan2 SRB Max. (maximal inhibition) [3]: 39.80%
IC50 [3]: 1390 nM
